What was measured:
human PDE2A1 = human PDE2A1 (Homo sapiens (Human), UniProt O00408); test: PDE selectivity panel IMAP FP assay, human PDE2; type: biochemical; conditions: FAM cAMP 50 nM containing 1000 nM cGMP
Experimental: Selectivity for PDE2, as compared to other PDE families, was assessed using the IMAP® technology. Human PDE10A2 enzyme was prepared from cytosolic fractions of transiently transfected HEK cells. […] The enzyme and the substrate were then added to the assay plates in two consecutive additions of 10 μL and then shaken to mix. The reaction was allowed to proceed at room temperature for 60 minutes. […] The enzymatic reaction was stopped by addition of 60 μL of the binding solution to each well of the assay plate. The plates were sealed and shaken for 10 seconds. The plates were incubated at room temperature for one hour, then the parallel and perpendicular fluorescence was measured using a Tecan Genios Pro plate reader (Tecan, Switzerland). […] The intrinsic PDE2 inhibitory activity of a compound which may be used in accordance with the present invention may be determined by these assays. […] Additional data is provided in the following Examples.

Rhesus PDE2A3 = Rhesus PDE2A3 (Macaca mulatta, UniProt B3VTJ2); test: PDE2 fluorescence polarization (IMAP FP) inhibition assay, rhesus enzyme; type: biochemical, rhesus macaque; conditions: FAM-cAMP 50 nM substrate, cGMP 1 uM activator
[1] = literature report; cited from earlier work
other PDE isoforms = conditions: literature report; cited from earlier work

Sequence of human PDE2A1 (O00408 other isoform, or with tags, fused parts or gaps): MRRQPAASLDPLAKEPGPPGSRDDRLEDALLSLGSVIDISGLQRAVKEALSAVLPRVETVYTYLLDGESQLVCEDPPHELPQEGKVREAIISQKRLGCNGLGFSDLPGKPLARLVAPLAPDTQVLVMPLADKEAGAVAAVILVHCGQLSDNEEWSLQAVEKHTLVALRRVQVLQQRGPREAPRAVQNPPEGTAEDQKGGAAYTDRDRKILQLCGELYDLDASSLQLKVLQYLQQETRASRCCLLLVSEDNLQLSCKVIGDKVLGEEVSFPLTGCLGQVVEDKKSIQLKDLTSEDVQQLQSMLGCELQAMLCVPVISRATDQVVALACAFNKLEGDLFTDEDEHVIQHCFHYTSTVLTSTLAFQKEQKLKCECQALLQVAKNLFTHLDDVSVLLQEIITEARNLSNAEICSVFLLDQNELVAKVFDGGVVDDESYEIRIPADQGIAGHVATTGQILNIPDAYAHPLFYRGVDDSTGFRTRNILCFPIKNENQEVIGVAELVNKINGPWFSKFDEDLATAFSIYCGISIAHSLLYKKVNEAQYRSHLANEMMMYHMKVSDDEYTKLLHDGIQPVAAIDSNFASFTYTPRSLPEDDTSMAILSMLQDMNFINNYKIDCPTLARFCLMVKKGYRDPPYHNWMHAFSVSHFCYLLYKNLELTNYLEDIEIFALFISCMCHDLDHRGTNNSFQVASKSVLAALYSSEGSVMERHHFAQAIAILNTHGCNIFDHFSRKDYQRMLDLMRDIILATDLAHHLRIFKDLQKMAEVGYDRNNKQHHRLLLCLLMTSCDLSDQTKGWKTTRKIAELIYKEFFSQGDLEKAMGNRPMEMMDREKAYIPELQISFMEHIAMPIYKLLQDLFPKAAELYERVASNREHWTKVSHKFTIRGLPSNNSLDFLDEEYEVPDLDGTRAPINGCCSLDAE
Sequence of Rhesus PDE2A3 (B3VTJ2 1-941): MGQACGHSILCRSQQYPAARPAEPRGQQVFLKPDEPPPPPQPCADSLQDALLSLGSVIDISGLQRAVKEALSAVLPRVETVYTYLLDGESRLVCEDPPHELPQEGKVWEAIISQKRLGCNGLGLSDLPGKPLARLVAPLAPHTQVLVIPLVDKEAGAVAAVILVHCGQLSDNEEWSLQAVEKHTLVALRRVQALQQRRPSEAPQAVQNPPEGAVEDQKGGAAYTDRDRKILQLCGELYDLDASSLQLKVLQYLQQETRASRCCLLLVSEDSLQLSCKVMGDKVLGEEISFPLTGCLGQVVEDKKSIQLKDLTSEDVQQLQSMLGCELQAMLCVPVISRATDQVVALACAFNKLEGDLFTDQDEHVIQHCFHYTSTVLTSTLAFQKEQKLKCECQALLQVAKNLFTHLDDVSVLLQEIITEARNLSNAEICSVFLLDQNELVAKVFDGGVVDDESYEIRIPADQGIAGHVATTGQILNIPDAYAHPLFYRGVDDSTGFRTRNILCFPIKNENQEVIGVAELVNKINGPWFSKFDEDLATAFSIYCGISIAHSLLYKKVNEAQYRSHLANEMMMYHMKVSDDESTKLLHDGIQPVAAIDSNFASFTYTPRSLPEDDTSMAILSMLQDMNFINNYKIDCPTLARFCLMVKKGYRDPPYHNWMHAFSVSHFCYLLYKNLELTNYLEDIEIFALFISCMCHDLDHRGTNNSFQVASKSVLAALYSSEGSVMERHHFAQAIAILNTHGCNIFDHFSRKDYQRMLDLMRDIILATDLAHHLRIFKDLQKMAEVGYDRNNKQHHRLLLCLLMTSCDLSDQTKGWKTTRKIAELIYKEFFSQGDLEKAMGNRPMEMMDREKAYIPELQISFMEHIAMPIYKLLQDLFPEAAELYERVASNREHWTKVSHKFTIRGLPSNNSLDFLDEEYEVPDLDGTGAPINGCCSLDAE

Row | Structure (SMILES) | Ki (human PDE2A1) | other results
1 | Cc1nc2c([C@@H](C)c3ccc(C(F)(F)F)cc3)nn([C@H](C)CO)c2c(=O)[nH]1 (single isomer, unassigned) [Example 21, 1-((R)-1-Hydroxypropan-2-yl)-5-methyl-3-((S)-1-(4-(trifluoromethyl)phenyl)ethyl)-1,6-dihydro-7H-pyrazolo[4,3-d]pyrimidin-7-one or 1-((R)-1-Hydroxypropan-2-yl)-5-methyl-3-((R)-1-(4-(trifluoromethyl)phenyl)ethyl)-1,6-dihydro-7H-pyrazolo[4,3-d]pyrimidin-7-one] | 239 nM | –
2 | Cc1nc2c([C@@H](C)c3ccc(C(F)(F)F)cc3)nn([C@H](C)CO)c2c(=O)[nH]1 (single isomer, unassigned) [Example 22, 1-((R)-1-Hydroxypropan-2-yl)-5-methyl-3-((S)-1-(4-(trifluoromethyl)phenyl)ethyl)-1,6-dihydro-7H-pyrazolo[4,3-d]pyrimidin-7-one or 1-((R)-1-Hydroxypropan-2-yl)-5-methyl-3-((R)-1-(4-(trifluoromethyl)phenyl)ethyl)-1,6-dihydro-7H-pyrazolo[4,3-d]pyrimidin-7-one] | 15.6 nM | –
3 | Cc1nc2c([C@@H](C)c3ccc(C(F)(F)F)cc3)nn([C@@H](C)CO)c2c(=O)[nH]1 (single isomer, unassigned) [Example 23, 1-((S)-1-Hydroxypropan-2-yl)-5-methyl-3-((S)-1-(4-(trifluoromethyl)phenyl)ethyl)-1,6-dihydro-7H-pyrazolo[4,3-d]pyrimidin-7-one or 1-((S)-1-Hydroxypropan-2-yl)-5-methyl-3-((R)-1-(4-(trifluoromethyl)phenyl)ethyl)-1,6-dihydro-7H-pyrazolo[4,3-d]pyrimidin-7-one] | 142 nM | –
4 | Cc1nn2c([C@@H](C)c3ccc(C(F)(F)F)cc3)nc(C)c2c(=O)[nH]1 (single isomer, unassigned) [Example 26] | – | Ki (Rhesus PDE2A3): 779 nM
5 | Cc1nn2c([C@@H](C)c3ccc(C(F)(F)F)cc3)nc(CO)c2c(=O)[nH]1 (single isomer, unassigned) [Example 28] | 298 nM | –
6 | Cc1nn2c([C@@H](C)c3ccc(C(F)(F)F)cc3)nc(CO)c2c(=O)[nH]1 (single isomer, unassigned) [Example 29] | 1.2 nM | –
7 | Cc1nn2c(C(C)c3ccc(C(F)(F)F)cc3F)nc(CO)c2c(=O)[nH]1 (single isomer, unassigned) [Example 30, (R)- or (S)-7-(1-(2-fluoro-4-(trifluoromethyl)phenyl)ethyl)-5-(hydroxymethyl)-2-methylimidazo[5,1-f][1,2,4]triazin-4(3H)-one] | 200 nM | –
8 | Cc1nn2c(C(C)c3ccc(C(F)(F)F)c(F)c3)nc(CO)c2c(=O)[nH]1 (single isomer, unassigned) [Example 34, (R)- or (S)-7-(1-(3-fluoro-4-(trifluoromethyl)phenyl)ethyl)-5-(hydroxymethyl)-2-methylimidazo[5,1-f][1,2,4]triazin-4(3H)-one] | 216 nM | –
9 | Cc1nn2c(C(C)c3ccc(C(F)(F)F)c(F)c3)nc(CO)c2c(=O)[nH]1 (single isomer, unassigned) [Example 35, (S)- or (R)-7-(1-(3-fluoro-4-(trifluoromethyl)phenyl)ethyl)-5-(hydroxymethyl)-2-methylimidazo[5,1-f][1,2,4]triazin-4(3H)-one] | 1 nM | –
10 | Cc1nn2c(C(C)c3ccc(C4(C)CC4)cc3)nc(CO)c2c(=O)[nH]1 (single isomer, unassigned) [Example 37, (S)- or (R)-5-(hydroxymethyl)-2-methyl-7-(1-(4-(1-methylcyclopropyl)phenyl)ethyl)imidazo[5,1-f][1,2,4]triazin-4(3H)-one] | 0.4 nM | –
11 | COc1ccc(Cc2nn3c([C@@H](CCCc4ccccc4)[C@@H](C)O)nc(C)c3c(=O)[nH]2)cc1OC [Bay 60-7550] | – | brain penetration [1]: limited; potency at other PDE isoforms (other PDE isoforms): significant potency

Continued by falling Ki (human PDE2A1), values first:

Row | Ki (human PDE2A1) | Structure (SMILES) | other results
12 | 2800 nM | Cc1nc2c(C(C)c3cccc(C(F)(F)F)c3F)nn(CCO)c2c(=O)[nH]1 (single isomer, unassigned) [Example 9, (R)- or (S)-3-(1-(2-Fluoro-3-(trifluoromethyl)phenyl)ethyl)-1-(2-hydroxyethyl)-5-methyl-1,6-dihydro-7H-pyrazolo[4,3-d]pyrimidin-7-one] | –
13 | 206 nM | Cc1nc2c(C(C)c3cccc(C(F)(F)F)c3F)nn(CCO)c2c(=O)[nH]1 (single isomer, unassigned) [Example 10, (S)- or (R)-3-(1-(2-Fluoro-3-(trifluoromethyl)phenyl)ethyl)-1-(2-hydroxyethyl)-5-methyl-1,6-dihydro-7H-pyrazolo[4,3-d]pyrimidin-7-one] | –
14 | 109 nM | Cc1nn2c(C(C)c3ccc(C4(C)CC4)cc3)nc(CO)c2c(=O)[nH]1 (single isomer, unassigned) [Example 36, (R)- or (S)-5-(hydroxymethyl)-2-methyl-7-(1-(4-(1-methylcyclopropyl)phenyl)ethyl)imidazo[5,1-f][1,2,4]triazin-4(3H)-one] | –
15 | 90.3 nM | Cc1nn2c([C@@H](C)c3ccc(C(F)(F)F)cc3)nc(CCO)c2c(=O)[nH]1 (single isomer, unassigned) [Example 39] | –
16 | 62.5 nM | Cc1nn2c(C(C)c3ccc(OC(F)(F)F)cc3)nc(CO)c2c(=O)[nH]1 (single isomer, unassigned) [Example 32, (R)- or (S)-5-(hydroxymethyl)-2-methyl-7-(1-(4-(trifluoromethoxy)phenyl)ethyl)imidazo[5,1-f][1,2,4]triazin-4(3H)-one] | –
17 | 17.2 nM | Cc1nn2c([C@@H](C)c3ccc(C(F)(F)F)cc3)nc(C)c2c(=O)[nH]1 (single isomer, unassigned) [Example 27] | Ki (Rhesus PDE2A3): 21 nM
18 | 6.1 nM | Cc1nn2c(C(C)c3ccc(C(F)(F)F)cc3)nc(CC#N)c2c(=O)[nH]1 (stereo not shown) [Example 38, 2-(2-methyl-4-oxo-7-(1-(4-(trifluoromethyl)phenyl)ethyl)-3,4-dihydroimidazo-[5,1-f][1,2,4]triazin-5-yl)acetonitrile] | –
19 | 1.2 nM | Cc1nn2c(C(C)c3ccc(OC(F)(F)F)cc3)nc(CO)c2c(=O)[nH]1 (single isomer, unassigned) [Example 33, (S)- or (R)-5-(hydroxymethyl)-2-methyl-7-(1-(4-(trifluoromethoxy)phenyl)ethyl)imidazo[5,1-f][1,2,4]triazin-4(3H)-one] | –
20 | 0.8 nM | Cc1nn2c(C(C)c3ccc(C(F)(F)F)cc3F)nc(CO)c2c(=O)[nH]1 (single isomer, unassigned) [Example 31, (S)- or (R)-7-(1-(2-fluoro-4-(trifluoromethyl)phenyl)ethyl)-5-(hydroxymethyl)-2-methylimidazo[5,1-f][1,2,4]triazin-4(3H)-one] | –

Reference: patent US10287293B2, “Bicyclic heterocyclic compounds as PDE2 inhibitors” (Merck Sharp & Dohme Corp., priority 2015, dated 2019)
